Tests used:
[1] = biological target: T1, CNGA1 channel (bovine CNGA1, bCNGA1) (Bos taurus, UniProt Q00194); test: cell-based
T1 sequence (Q00194 1-690): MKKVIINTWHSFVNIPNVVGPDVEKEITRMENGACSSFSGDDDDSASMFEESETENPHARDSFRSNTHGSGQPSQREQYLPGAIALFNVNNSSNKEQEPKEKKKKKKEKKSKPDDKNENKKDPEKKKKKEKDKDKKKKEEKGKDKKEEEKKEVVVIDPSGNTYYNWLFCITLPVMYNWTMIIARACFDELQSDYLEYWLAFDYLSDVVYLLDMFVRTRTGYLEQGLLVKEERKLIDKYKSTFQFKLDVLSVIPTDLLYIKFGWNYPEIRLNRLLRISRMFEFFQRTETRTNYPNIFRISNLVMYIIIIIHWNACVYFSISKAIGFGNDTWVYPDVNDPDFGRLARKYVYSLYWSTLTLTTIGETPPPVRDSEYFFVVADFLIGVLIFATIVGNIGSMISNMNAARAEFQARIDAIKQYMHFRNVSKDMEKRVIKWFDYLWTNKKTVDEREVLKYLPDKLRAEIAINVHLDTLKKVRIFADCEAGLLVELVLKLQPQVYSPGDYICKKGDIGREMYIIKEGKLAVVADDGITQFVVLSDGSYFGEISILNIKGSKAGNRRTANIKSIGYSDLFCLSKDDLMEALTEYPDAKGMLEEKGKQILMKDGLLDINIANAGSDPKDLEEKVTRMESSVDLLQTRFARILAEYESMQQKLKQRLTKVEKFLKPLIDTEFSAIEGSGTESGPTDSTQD

[2] = biological target: T1, CNGA1 channel (bovine CNGA1, bCNGA1); test: excised-patch voltage clamp; current activation; type: biochemical; parameters: full-length CNGA1 expressed alone from cRNA in Xenopus laevis oocytes; excised patches; conditions: agonist at 1 mM; DMA as charge carrier; pH 7.4
NaK2CNG-E chimera = test: crystal structure; sitting drop vapor diffusion at 20°C, 40-44% MPD, 100 mM MES pH 6.5, 25 mM glycine; protein purified in DM with DMA·HCl; space group P222_(1); tetramers AABB and CCDD built by two-fold crystallographic symmetry

`CNC` [DMA, dimethylammonium] gave a Kd [1] of 52 mM.
`Nc1nc2c(ncn2[C@@H]2O[C@@H]3COP(=O)(O)O[C@H]3[C@H]2O)c(=O)[nH]1` [cGMP] was tested, and the “excised-patch voltage clamp; current activation” value [2] was “The cGMP activated current was measured as the difference between the current recorded in the presence”.
NaK2CNG-E chimera was tested, and the stoichiometry N (NaK2CNG-E chimera) was 4.

— publication PMC6091977, “The permeation mechanism of organic cations through a CNG mimic channel” (PLoS Computational Biology, 2018)
